Literature values as cited in US20040110781A1 (priority 2002, published 2004).

Test system: excitory opioid receptors on sensory neurons

C[C@@H](NC(=O)[C@@H](N)Cc1ccc(O)cc1)C(=O)NCC(=O)N[C@@H](Cc1ccccc1)C(=O)NNC(=O)[C@H](Cc1ccccc1)NC(=O)CNC(=O)[C@@H](C)NC(=O)[C@@H](N)Cc1ccc(O)cc1 [biphalin]
action on excitory opioid receptor functions: selective antagonists of excitory opioid receptors functions
